The subject of one data set is Aedes aegypti. Put plainly: Aedes aegypti (Yellow fever mosquito) larvae test. The following applies: 48 h. In kind it is in vivo.
The test system of data set [1] is Erysiphe graminis f.sp. tritici. Put plainly: Erysiphe graminis f.sp. tritici (wheat powdery mildew) leaf disk assay. The class given is in vivo. The following applies: Blumeria graminis, foliar, 96 h, preventive, four days after inoculation, read-out: control of fungal infection, Erysiphe graminis fsp. tritici.
For data set [2], the system named is Puccinia recondita f.sp. tritici. Nature of the data set: Puccinia recondita f.sp. tritici (wheat brown rust) leaf disk assay. In kind it is in vivo. The settings on record: foliar, 216 h, preventive, nine days after inoculation, read-out: control of fungal infection, Puccinia recondita f.sp. tritici.
The test system of a further data set is Pyricularia oryzae. Put plainly: whole plant or invertebrate. In kind it is in vivo. The following applies: foliar, 96 h.
The subject of a further data set is Phytophthora infestans. Put plainly: whole plant or invertebrate. In kind it is in vivo. The settings on record: foliar, 96 h, read-out: control of fungal infection, Phytophthora infestans.
The test system of another data set is Plasmopara viticola. Put plainly: Plasmopara viticola (downy mildew of grapevine) leaf disk assay. In kind it is in vivo. The settings on record: foliar, 168 h, preventive, seven days after inoculation, read-out: control of fungal infection, Plasmopara viticola.
For the next data set, the system named is Pythium ultimum. Nature of the data set: Pythium ultimum (Damping off) growth inhibition in potato dextrose broth. In kind it is cell-based. The settings on record: Globisporangium ultimum, 48 hours, read-out: control of fungal infection, Pythium ultimum.
The test system of a further data set is Plutella xylostella. Nature of the data set: Plutella xylostella (Diamond back moth) artificial diet test. The following applies: 120 h, read-out: control of Plutella xylostella.
The subject of the next data set is Heliothis virescens. Put plainly: Heliothis virescens (Tobacco budworm) egg test on artificial diet. The settings on record: 96 h, read-out: control of Heliothis virescens.
Another data set has as its system Tetranychus urticae. The settings on record: foliar, 192 h, read-out: control of Tetranychus urticae.
Another data set concerns Myzus persicae. Put plainly: Myzus persicae (Green peach aphid) sunflower leaf disc test. The following applies: foliar, 144 h, read-out: control of Myzus persicae.
Where [3] appears, read: read-out: control of fungal infection, Pyricularia oryzae (at least 60% list).
[4] abbreviates: read-out: control of fungal infection, Pyricularia oryzae (at least 80% list).

21 molecules from patent US20100331348A1, “TROPANE DERIVATIVES USEFUL AS PESTICIDES” (SYNGENTA CROP PROTECTION, INC., priority 2007, published 2010) can be followed below.

Where two headings read alike, the source gives them in different places.

With `c1ccc(CON=C2CC3CCC(C2)N3c2ncnc3sccc23)cc1` [Example 5.138], the pest or weed control at 2 ppm in the data set with Aedes aegypti is at least 80%. Moreover, the pest or weed control at 200 ppm in data set [1] was at least 80%; in data set [2] it was at least 80%; in the data set on Pyricularia oryzae (setting [3]) it was at least 60%; with Phytophthora infestans it was at least 80%; in the data set on Plasmopara viticola, at least 80%; in the data set on Plutella xylostella, at least 80%. The pest or weed control at 200 ppm in the data set with Heliothis virescens and in the data set with Tetranychus urticae was at least 80% in each case. The inhibition of growth at 200 ppm with Pythium ultimum is at least 60%.
As for `CS(=O)(=O)c1ccc(CON=C2CC3CCC(C2)N3c2ncnc3sccc23)cc1` [Example 5.248], the pest or weed control at 200 ppm (in data set [1]; in [2]; in the data set with Phytophthora infestans; in the data set on Tetranychus urticae) was at least 80% throughout. Moreover, the inhibition of growth at 200 ppm in the data set with Pythium ultimum was at least 60%.
Take `Fc1cccc2c(N3[C@@H]4CC[C@H]3CC(Oc3cc(C(F)(F)F)ccn3)C4)ccnc12` (stereo partly drawn) [Example 2.185]: the figures for the pest or weed control at 200 ppm (in data set [1]; with Pyricularia oryzae (setting [3]); in the data set with Phytophthora infestans) were at least 80%, at least 60% and at least 80%, respectively. In the data set with Pythium ultimum, the inhibition of growth at 200 ppm was at least 60%.
`CCc1ncnc(N2C3CCC2CC(=NOCc2cc4c(cc2Cl)OCO4)C3)c1Cl` [Example 5.114]: the pest or weed control at 2 ppm with Aedes aegypti is at least 80%. Besides, the pest or weed control at 200 ppm (in data set [1]; in data set [2]; in the data set on Plasmopara viticola; in the data set with Myzus persicae) was at least 80% throughout.
On to `CCc1ncnc(N2C3CCC2CC(=NOCc2cc(OC)nc(N)n2)C3)c1Cl` [Example 5.91], for which the pest or weed control at 200 ppm (in [1]; in [2]; with Phytophthora infestans) was at least 80% throughout. For the same molecule, in the data set on Pythium ultimum, the inhibition of growth at 200 ppm is at least 60%.
Turning to `CCc1ncnc(N2C3CCC2CC(=NOCc2c(F)ccc(F)c2F)C3)c1Cl` [Example 5.82], the pest or weed control at 2 ppm in the data set with Aedes aegypti was at least 80%. Besides, the pest or weed control at 200 ppm in data set [1] was at least 80%; in data set [2], at least 80%; in the data set on Pyricularia oryzae (setting [3]), at least 60%; with Phytophthora infestans it was at least 80%; in the data set on Myzus persicae, at least 80%; with Plutella xylostella, at least 80%.
`CCc1ncnc(N2C3CCC2CC(=NOCc2ccc(F)cc2Cl)C3)c1Cl` [Example 5.76] yielded a pest or weed control at 2 ppm with Aedes aegypti of at least 80%. In addition, the pest or weed control at 200 ppm in data set [2] was at least 80%; in the data set on Pyricularia oryzae (setting [3]), at least 60%; in the data set with Myzus persicae, at least 80%; with Plutella xylostella, at least 80%.
`Fc1cc(F)cc(CON=C2CC3CCC(C2)N3c2ncnc3sccc23)c1` [Example 5.205]: the pest or weed control at 200 ppm (in [1]; in data set [2]; in the data set on Pyricularia oryzae (setting [4]); with Phytophthora infestans) was at least 80% in each case. The inhibition of growth at 200 ppm in the data set with Pythium ultimum is at least 60%.
`CCc1ncnc(N2C3CCC2CC(=NOCc2ccncc2)C3)c1Cl` [Example 5.6]: in the data set with Aedes aegypti, the pest or weed control at 2 ppm was at least 80%. The pest or weed control at 200 ppm (in data set [2]; with Phytophthora infestans; with Tetranychus urticae) was at least 80% throughout. In addition, the inhibition of growth at 200 ppm in the data set on Pythium ultimum is at least 60%.
For orientation: melting point means the temperature, or range, at which the solid turns liquid. As for `FC(F)(F)c1cccc(OC2C[C@H]3CC[C@@H](C2)N3c2ccnc3c(Cl)cccc23)n1` (stereo partly drawn) [Example 2.175], the melting point stood at 116 °C. The pest or weed control at 200 ppm with Pyricularia oryzae (setting [3]) was at least 60%. Moreover, in the data set with Phytophthora infestans, the pest or weed control at 200 ppm is at least 80%. The inhibition of growth at 200 ppm in the data set on Pythium ultimum was at least 60%.
`Fc1cccc(CON=C2CC3CCC(C2)N3c2ncnc3sccc23)c1F` [Example 5.219] returned a pest or weed control at 2 ppm in the data set with Aedes aegypti of at least 80%. The pest or weed control at 200 ppm in data set [1] is at least 80%; in data set [2] it was at least 80%; in the data set on Pyricularia oryzae (setting [3]), at least 60%; with Pyricularia oryzae (setting [4]) it was at least 80%; in the data set on Phytophthora infestans it was at least 80%; in the data set on Plutella xylostella, at least 80%. In addition, in the data set on Pythium ultimum, the inhibition of growth at 200 ppm was at least 60%.
`Cc1ccc(OC2C[C@H]3CC[C@@H](C2)N3c2ccnc3c2c(C)nn3C)cn1` (stereo partly drawn) [Example 2.164] gave a melting point of 153 °C. Besides, the pest or weed control at 200 ppm in [1] is at least 80%. Also, the inhibition of growth at 200 ppm in the data set with Pythium ultimum was at least 60%.
As for `Fc1cccc2c(N3[C@@H]4CC[C@H]3CC(Oc3ccc(C(F)(F)F)cn3)C4)ccnc12` (stereo partly drawn) [Example 2.201], in the data set on Aedes aegypti, the pest or weed control at 2 ppm was at least 80%. Moreover, the pest or weed control at 200 ppm was at least 80% in [1]; at least 80% in data set [2]; at least 60% in the data set on Pyricularia oryzae (setting [3]); at least 80% with Phytophthora infestans; at least 80% in the data set with Plutella xylostella; at least 80% in the data set on Heliothis virescens. In addition, the pest or weed control at 200 ppm in the data set with Tetranychus urticae was at least 80%. In the data set on Pythium ultimum, the inhibition of growth at 200 ppm is at least 60%.
Turning to `CCc1ncnc(N2C3CCC2CC(=NOCc2ccc(C)cc2)C3)c1Cl` [Example 5.7], in the data set on Aedes aegypti, the pest or weed control at 2 ppm is at least 80%. The pest or weed control at 200 ppm (in data set [1]; in data set [2]; with Phytophthora infestans; in the data set with Myzus persicae; in the data set with Plutella xylostella) was at least 80% throughout.
Molecule `CCc1ncnc(N2C3CCC2CC(=NOCc2ccccn2)C3)c1Cl` [Example 5.41] had a pest or weed control at 2 ppm with Aedes aegypti of at least 80%. Also, the pest or weed control at 200 ppm (in data set [1]; in [2]; in the data set with Phytophthora infestans; in the data set on Heliothis virescens) was at least 80% throughout. Also, in the data set with Pythium ultimum, the inhibition of growth at 200 ppm was at least 60%.
As for `Cc1csc(CC2CC3CCC(C2)N3c2ncnc3sccc23)n1` (stereo not drawn) [Example 7.16], the melting point came to 132 °C. In addition, in [2], the pest or weed control at 200 ppm was at least 80%. In addition, the inhibition of growth at 200 ppm in the data set with Pythium ultimum was at least 60%.
Consider `FC(F)(F)c1cccc(OC2C[C@H]3CC[C@@H](C2)N3c2ccnc3cc(Cl)ccc23)n1` (stereo partly drawn) [Example 2.174], for which the melting point was found to be 177 °C. Besides, the inhibition of growth at 200 ppm in the data set on Pythium ultimum is at least 60%.
In turn, `Cc1ccc(CON=C2CC3CCC(C2)N3c2ncnc3sccc23)c(C)c1` [Example 5.190] came in with a pest or weed control at 2 ppm in the data set on Aedes aegypti of at least 80%. For the same molecule, the pest or weed control at 200 ppm (in [1]; in data set [2]; in the data set on Phytophthora infestans; with Plasmopara viticola; in the data set with Myzus persicae; with Plutella xylostella) was at least 80% each time.
On to `Fc1cccc2c(N3[C@@H]4CC[C@H]3CC(Oc3cccc(C(F)(F)F)n3)C4)ccnc12` (stereo partly drawn) [Example 2.172], for which the melting point was found to be 133 °C. In addition, the inhibition of growth at 200 ppm in the data set with Pythium ultimum is at least 60%.
As for `CCc1ncnc(N2C3CCC2CC(=NOCc2ccc(S(C)(=O)=O)cc2)C3)c1Cl` [Example 5.106], the pest or weed control at 200 ppm (in data set [1]; in [2]; in the data set with Phytophthora infestans; with Tetranychus urticae) was at least 80% in each case. In the data set with Pythium ultimum, the inhibition of growth at 200 ppm was at least 60%.
With `COc1ccc(CON=C2CC3CCC(C2)N3c2ncnc3sccc23)cc1` [Example 5.165], the pest or weed control at 200 ppm (in [1]; with Phytophthora infestans) was at least 80% each time. In the data set with Pythium ultimum, the inhibition of growth at 200 ppm was at least 60%.
